Laboratory results reported in ChEMBL document CHEMBL5532638, “Current development of 1,2,3-triazole derived potential antimalarial scaffolds: Structure- activity relationship (SAR) and bioactive compounds” (Eur J Med Chem, 2023).

Key:
Plasmodium falciparum [1] = assay: Antiplasmodial activity against CQ-resistant Plasmodium falciparum K1 infected in human O+ RBCs assessed as parasite growth inhibition incubated for 72 hrs by ELISA; type: functional, organism-based; conditions: K1, 72 h
Plasmodium falciparum [2] = assay: Antimalarial activity against Plasmodium falciparum 3D7 assessed as parasite growth inhibition incubated for 42 hrs by [3H]-hypoxanthine incorporation assay; type: functional, organism-based
[3] = Cytotoxicity against human PC-3 cells incubated for 72 hrs by MTT assay; type: toxicity, cell-based
Plasmodium falciparum [4] = assay: Antiplasmodial activity against Plasmodium falciparum 3D7 infected in human red blood cells assessed as parasite growth inhibition incubated for 72 hrs by SYBR Green I staining based analysis; type: functional, organism-based, Red blood cell; conditions: 3D7, Erythrocyte

## Cc1ccc(C2C(Oc3ccccc3)C(=O)N2c2ccc(OCc3cn(Cc4ccccc4)nn3)cc2)cc1 (stereo not drawn)
Plasmodium falciparum [1]
  IC50: 850 nM

## COc1ccc2cc3[n+](cc2c1OCc1cn(-c2ccc(S(=O)(=O)N4CCN(S(=O)(=O)c5ccc(-n6cc(COc7c(OC)ccc8cc9[n+](cc78)CCc7cc8c(cc7-9)OCO8)nn6)cc5)CC4)cc2)nn1)CCc1cc2c(cc1-3)OCO2.[Cl-].[Cl-]
Plasmodium falciparum [2]
  IC50: 0.1 µg/mL
[3]
  CC50 at 72 h: > 200 µg/mL

## CCOCc1cn(-c2ccc(Cl)cc2)nn1
Plasmodium falciparum [4]
  IC50: 2800 nM

## O=C1C(Oc2ccccc2)C(c2ccc([N+](=O)[O-])cc2)N1c1ccc(OCc2cn(Cc3ccccc3)nn2)cc1 (stereo not drawn)
Plasmodium falciparum [1]
  IC50: 850 nM

## C=CCn1cc(COc2ccc(C3C(Oc4ccccc4)C(=O)N3c3ccc(C)cc3)cc2)nn1 (stereo not drawn)
Plasmodium falciparum [1]
  IC50: 850 nM

## O=C(N/N=C/c1cn(-c2ccccc2)nn1)c1ccncc1
Plasmodium falciparum [4]
  IC50: 2800 nM

## COc1ccc2cc3[n+](cc2c1OCc1cn(-c2ccc(S(=O)(=O)N4CCOCC4)cc2)nn1)CCc1cc2c(cc1-3)OCO2.[Cl-]
Plasmodium falciparum [2]
  IC50: 0.1 µg/mL
[3]
  CC50 at 72 h: > 200 µg/mL

## CCOCc1cn(-c2cc(Cl)cc(Cl)c2)nn1
Plasmodium falciparum [4]
  IC50: 2800 nM

## O=C(OCc1cnn(-c2ccccc2)n1)c1ccccc1
Plasmodium falciparum [4]
  IC50: 2800 nM

## COc1ccc2cc3[n+](cc2c1OCc1cn(-c2ccc(S(=O)(=O)Nc4ccc(F)cc4)cc2)nn1)CCc1cc2c(cc1-3)OCO2.[Cl-]
Plasmodium falciparum [2]
  IC50: 0.1 µg/mL
[3]
  CC50 at 72 h: > 200 µg/mL

## O=C1C(Oc2ccc(Cl)cc2Cl)C(c2ccc(OCc3cn(Cc4ccccc4)nn3)cc2)N1c1ccc(OCc2cn(Cc3ccccc3)nn2)cc1 (stereo not drawn)
Plasmodium falciparum [1]
  IC50: 970 nM

## O=C1C(Oc2ccccc2)C(c2ccc(OCc3cn(Cc4ccccc4)nn3)cc2)N1c1ccccc1 (stereo not drawn)
Plasmodium falciparum [1]
  IC50: 850 nM

## Clc1ccc(-n2cc(/C=N/Nc3c(Cl)cccc3Cl)nn2)cc1
Plasmodium falciparum [4]
  IC50: 2800 nM

## CCCOCc1cn(-c2cc(Cl)ccc2Cl)nn1
Plasmodium falciparum [4]
  IC50: 2800 nM

## C=CCn1cc(COc2ccc(N3C(=O)C(Oc4ccccc4)C3c3ccc(C)cc3)cc2)nn1 (stereo not drawn)
Plasmodium falciparum [1]
  IC50: 850 nM

## COc1ccc2cc3[n+](cc2c1OCc1cn(-c2ccc(S(=O)(=O)N4CCN(c5ccccn5)CC4)cc2)nn1)CCc1cc2c(cc1-3)OCO2.[Cl-]
Plasmodium falciparum [2]
  IC50: 0.1 µg/mL
[3]
  CC50 at 72 h: > 200 µg/mL

## Clc1cc(Cl)cc(-n2cc(/C=N/Nc3ccc(Br)cc3)nn2)c1
Plasmodium falciparum [4]
  IC50: 2800 nM

## COc1ccc2cc3[n+](cc2c1OCc1cn(-c2ccc(S(N)(=O)=O)cc2)nn1)CCc1cc2c(cc1-3)OCO2.[Cl-]
Plasmodium falciparum [2]
  IC50: 0.1 µg/mL
[3]
  CC50 at 72 h: > 200 µg/mL

## Clc1ccc(N/N=C/c2cn(-c3ccc(Cl)cc3)nn2)cc1
Plasmodium falciparum [4]
  IC50: 2800 nM

## COc1ccc(-n2cc(/C=N/Nc3ccccc3)nn2)cc1
Plasmodium falciparum [4]
  IC50: 4440 nM

## CCOC(=O)Cn1cc(COc2ccc(C3C(Oc4ccc(Cl)cc4Cl)C(=O)N3c3ccc(OCc4cn(CC(=O)OCC)nn4)cc3)cc2)nn1 (stereo not drawn)
Plasmodium falciparum [1]
  IC50: 850 nM

## C=CCn1cc(COc2ccc(N3C(=O)C(Oc4ccccc4)C3c3ccccc3)cc2)nn1 (stereo not drawn)
Plasmodium falciparum [1]
  IC50: 850 nM

## CCCOCc1cn(-c2cc(Cl)cc(Cl)c2)nn1
Plasmodium falciparum [4]
  IC50: 2800 nM

## O=C1C(Oc2ccccc2)C(c2ccccc2)N1c1ccc(OCc2cn(Cc3ccccc3)nn2)cc1 (stereo not drawn)
Plasmodium falciparum [1]
  IC50: 850 nM

## C(=N\Nc1ccccc1)/c1cnn(-c2ccccc2)n1
Plasmodium falciparum [4]
  IC50: 2800 nM

## CCOC(=O)Cn1cc(COc2ccc(C3C(Oc4ccccc4)C(=O)N3c3ccc(OCc4cn(CC(=O)OCC)nn4)cc3)cc2)nn1 (stereo not drawn)
Plasmodium falciparum [1]
  IC50: 850 nM

## Fc1ccc(N/N=C/c2cn(-c3ccc(Cl)cc3)nn2)cc1
Plasmodium falciparum [4]
  IC50: 8450 nM

## O=C(N/N=C/c1cnn(-c2ccccc2)n1)c1ccncc1
Plasmodium falciparum [4]
  IC50: 2800 nM

## Clc1ccc(N/N=C/c2cnn(-c3ccccc3)n2)cc1
Plasmodium falciparum [4]
  IC50: 2800 nM

## COc1ccc2cc3[n+](cc2c1OCc1cn(-c2ccc(S(=O)(=O)Nc4ccccc4)cc2)nn1)CCc1cc2c(cc1-3)OCO2.[Cl-]
Plasmodium falciparum [2]
  IC50: 0.2 µg/mL
[3]
  CC50 at 72 h: > 200 µg/mL

## Cc1ccc(N2C(=O)C(Oc3ccccc3)C2c2ccc(OCc3cn(Cc4ccccc4)nn3)cc2)cc1 (stereo not drawn)
Plasmodium falciparum [1]
  IC50: 850 nM

## O=C1C(Oc2ccccc2)C(c2ccc(OCc3cn(Cc4ccccc4)nn3)cc2)N1c1ccc(OCc2cn(Cc3ccccc3)nn2)cc1 (stereo not drawn)
Plasmodium falciparum [1]
  IC50: 970 nM

## COc1ccc(-n2cc(/C=N/Nc3ccc(Cl)cc3)nn2)cc1
Plasmodium falciparum [4]
  IC50: 2800 nM

## COc1ccc(N2C(=O)C(Oc3ccccc3)C2c2ccc(OCc3cn(Cc4ccccc4)nn3)cc2)cc1OC (stereo not drawn)
Plasmodium falciparum [1]
  IC50: 850 nM

## O=C(N/N=C/c1cn(-c2cc(Cl)cc(Cl)c2)nn1)c1ccncc1
Plasmodium falciparum [4]
  IC50: 6960 nM

## CCCCOCc1cn(-c2cc(Cl)cc(Cl)c2)nn1
Plasmodium falciparum [4]
  IC50: 2800 nM

## COc1ccc(-n2cc(/C=N/NC(=O)c3ccncc3)nn2)cc1
Plasmodium falciparum [4]
  IC50: 2800 nM

## COc1ccc2cc3[n+](cc2c1OCc1cn(-c2ccc(S(=O)(=O)N4CCN(C)CC4)cc2)nn1)CCc1cc2c(cc1-3)OCO2.[Cl-]
Plasmodium falciparum [2]
  IC50: 0.1 µg/mL
[3]
  CC50 at 72 h: > 200 µg/mL

## Clc1ccc(Cl)c(-n2cc(/C=N/Nc3c(Cl)cccc3Cl)nn2)c1
Plasmodium falciparum [4]
  IC50: 2800 nM

## COc1ccc2cc3[n+](cc2c1OCc1cn(-c2ccc(S(=O)(=O)Nc4ccc(Cl)cc4)cc2)nn1)CCc1cc2c(cc1-3)OCO2
[3]
  CC50 at 72 h: > 200 µg/mL

## Clc1cc(Cl)cc(-n2cc(/C=N/Nc3c(Cl)cccc3Cl)nn2)c1
Plasmodium falciparum [4]
  IC50: 5560 nM

## C=CCn1cc(COc2ccc(C3C(Oc4ccccc4)C(=O)N3c3ccc(OCc4cn(CC=C)nn4)cc3)cc2)nn1 (stereo not drawn)
Plasmodium falciparum [1]
  IC50: 850 nM

## O=C1C(Oc2ccccc2)C(c2ccccc2Cl)N1c1ccc(OCc2cn(Cc3ccccc3)nn2)cc1 (stereo not drawn)
Plasmodium falciparum [1]
  IC50: 850 nM

## Fc1ccc(N/N=C/c2cnn(-c3ccccc3)n2)cc1
Plasmodium falciparum [4]
  IC50: 2800 nM

## C=CCn1cc(COc2ccc(N3C(=O)C(Oc4ccccc4)C3c3ccc([N+](=O)[O-])cc3)cc2)nn1 (stereo not drawn)
Plasmodium falciparum [1]
  IC50: 850 nM

## CCCCCCCCCC(=O)OCc1cn(-c2ccc(OC)cc2)nn1
Plasmodium falciparum [4]
  IC50: 2800 nM

## COc1ccc2cc3[n+](cc2c1OCc1cn(-c2ccc(S(=O)(=O)Nc4nc(C)cc(C)n4)cc2)nn1)CCc1cc2c(cc1-3)OCO2.[Cl-]
Plasmodium falciparum [2]
  IC50: 0.1 µg/mL
[3]
  CC50 at 72 h: > 200 µg/mL

## COc1ccc2cc3[n+](cc2c1OCc1cn(-c2ccc(S(=O)(=O)N4CCCCC4)cc2)nn1)CCc1cc2c(cc1-3)OCO2.[Cl-]
Plasmodium falciparum [2]
  IC50: 0.1 µg/mL
[3]
  CC50 at 72 h: > 200 µg/mL

## CCOC(=O)c1cnn(-c2ccccc2)c1
Plasmodium falciparum [4]
  IC50: 2800 nM

## Cc1cccc(C)c1N/N=C/c1cn(-c2cc(Cl)cc(Cl)c2)nn1
Plasmodium falciparum [4]
  IC50: 2800 nM

## CCCCCCCCCC(=O)OCc1cn(-c2cc(Cl)cc(Cl)c2)nn1
Plasmodium falciparum [4]
  IC50: 2800 nM

## C=CCn1cc(COc2ccc(C3C(Oc4ccc(Cl)cc4Cl)C(=O)N3c3ccc(OCc4cn(CC=C)nn4)cc3)cc2)nn1 (stereo not drawn)
Plasmodium falciparum [1]
  IC50: 850 nM

## COc1ccc2cc3[n+](cc2c1OCc1cn(-c2ccc(S(=O)(=O)Nc4ccc(Br)cc4)cc2)nn1)CCc1cc2c(cc1-3)OCO2.[Cl-]
Plasmodium falciparum [2]
  IC50: 0.1 µg/mL
[3]
  CC50 at 72 h: > 200 µg/mL

## COc1ccc(-n2cc(COC(=O)c3ccccc3)nn2)cc1
Plasmodium falciparum [4]
  IC50: 2800 nM

## COc1cccc(C2C(Oc3ccccc3)C(=O)N2c2ccc(OCc3cn(Cc4ccccc4)nn3)cc2)c1 (stereo not drawn)
Plasmodium falciparum [1]
  IC50: 850 nM

## C=CCn1cc(COc2ccc(N3C(=O)C(Oc4ccccc4)C3c3cccc(OC)c3)cc2)nn1 (stereo not drawn)
Plasmodium falciparum [1]
  IC50: 850 nM

## COc1ccc2cc3[n+](cc2c1OCc1cn(-c2ccc(S(=O)(=O)Nc4ccc([N+](=O)[O-])cc4)cc2)nn1)CCc1cc2c(cc1-3)OCO2.Cl
Plasmodium falciparum [2]
  IC50: 0.1 µg/mL
[3]
  CC50 at 72 h: > 200 µg/mL

## C=CCn1cc(COc2ccc(C3C(Oc4ccccc4)C(=O)N3c3ccccc3)cc2)nn1 (stereo not drawn)
Plasmodium falciparum [1]
  IC50: 850 nM

## CCOC(=O)Cn1cc(COc2ccc(C3C(OC)C(=O)N3c3ccc(OCc4cn(CC(=O)OCC)nn4)cc3)cc2)nn1 (stereo not drawn)
Plasmodium falciparum [1]
  IC50: 850 nM

## O/N=C/c1cn(-c2cc(Cl)ccc2Cl)nn1
Plasmodium falciparum [4]
  IC50: 2800 nM

## O=C(OCc1cn(-c2ccccc2)nn1)c1ccccc1
Plasmodium falciparum [4]
  IC50: 2800 nM

## O=C(N/N=C/c1cn(-c2ccc(Cl)cc2)nn1)c1ccncc1
Plasmodium falciparum [4]
  IC50: 2800 nM
